Test results published in US9211325B2, “Peptide adjuvants” (priority 2008, dated 2015).

Legend:
Set-up in all cases: species or system BALB/c mice
Conditions in all cases: mouse, in vivo
[1] = test system: homologous influenza virus isolate used for immunization (MDCK cells, CPE)
[2] = test system: HA (peptide pools derived from HA)
[3] = test system: Total anti-HBS antibodies
[4] = test system: Total anti-influenza IgG antibodies

Substance: KYMCW (Short peptide sequence not known to occur in nature) [5mer7]
- Neutralizing antibody response, FIG. 2 [1]: caused a significant antibody response

Substance: CHKWD (Short peptide sequence not known to occur in nature) [5mer1]
- Neutralizing antibody response, FIG. 2 [1]: did not cause a strong neutralizing antibody response

Substance: CKWRC (Short peptide sequence not known to occur in nature) [5mer3]
- Neutralizing antibody response, FIG. 2 [1]: did not cause a strong neutralizing antibody response

Substance: EMWCM (Short peptide sequence not known to occur in nature)
- T-cell response (ELISPOT), FIG. 18 [2]: did not

Substance: CYYWC (Short peptide sequence not known to occur in nature)
- T-cell response (ELISPOT), FIG. 18 [2]: below the baseline of HA alone

Substance: WHKCE (Short peptide sequence not known to occur in nature) [5mer2]
- Neutralizing antibody response, FIG. 2 [1]: did not cause a strong neutralizing antibody response

Substance: EHWCM (Short peptide sequence not known to occur in nature)
- T-cell response (ELISPOT), FIG. 18 [2]: generated a large T-cell response

Substance: free peptide (KWCEC; Short peptide sequence not known to occur in nature)
- Total anti-HBS antibodies (ELISA) response [3]: strong response at both 6 and 8 weeks post immunization
- antibody response (ELISA) after fluviral vaccination [4]: stronger response at both 6 and 8 weeks post immunization

Substance: CYWWW (Short peptide sequence not known to occur in nature)
- T-cell response (ELISPOT), FIG. 18 [2]: generated a significant T-cell response

Substance: KWCEC (Short peptide sequence not known to occur in nature) [5mer4]
- T cell response (ELISPOT) compared with other adjuvants, FIG. 16 [2]: stronger than that generated with alum alone and comparable to that generated by CpG
- Neutralizing antibody response, FIG. 2 [1]: caused a significant antibody response
